Read-outs that look alike come from different tables or passages of the source.
Tests used:
[1] = test system: Karpas 422 cells (EZH2 Y641N); experiment: Karpas 422 cell viability (Cell Titre Glo); type: cell-based, human; conditions: Day 4, Day 7 or Day 11 (time point not given), read-out: IC50 (nM), Inhibiting Proliferation of Cells Expressing an Activating Mutant Form of EZH2
Experimental: Karpas 422 cell line is a human B cell non-Hodgkin's lymphoma cell line established from a patient having DLBCL. This EZH2 heterozygotic cell line expresses a mutant form of EZH2 enzyme (Y641N) that increases histone H3 methylation and this mutation has been implicated in the tumorgenesis of lymphomas, such as DLBCL.
Karpas 422 cells (PHE cat no.,06101702) were cultured in RPMI medium supplemented with 20% fetal bovine serum and 1% penicillin/1% streptomycin and plated at a density of 1000 cells/90 μl/well in 96 well white assay plates. A dose response curve for compounds of the present invention was determined by adding a 10 μl aliquot of stock solutions of varying concentrations of compounds to the same medium in each well, over a concentration range of 10 μM using 3-fold dilutions to a final concentration of 1.5 nM. The plates were incubated at 37° C. for predetermined time periods, Day 4, Day 7, or Day 11, and the viability of the cells was measured using a CTG assay kit (Cell Titre Glo; Promega cat. no G7573) on Day 4 and Day 7 in accordance with the manufacturer's instructions.
For the viability assay for the Day 11 plates, the plates were subjected to centrifugation at 1100 rpm for five minutes on Day 7 and the supernatant was removed by aspiration. The cells were resuspended in 90 μl aliquot of the appropriate growth medium lacking the compound followed by addition of 10 μl of a 10× stock of the same compound at the same concentration. The viability of the Day 11 cells was measured using the CTG assay kit described above in accordance with the manufacturer's instructions. The IC50 values for each compound at each predetermined time point were calculated using Graph pad PRISM software and the results are shown in Table 15. A=≤250 nM; B=<250 nM-≤500 nM; and C=>500 nM.

[2] = test system: PRC2-mediated histone H3 Lys27 trimethylation in Pfeiffer cells (EZH2 A677G); experiment: Tri-Methyl Histone H3 (Lys 27) sandwich ELISA in Pfeiffer cells; type: cell-based, human; conditions: 96 hours incubation, read-out: IC50 (nM), Inhibition of EZH2-mediated Histone H3 Trimethylation
Excerpt: The Pfeiffer cell line was established from a […] from a patient having metastatic diffuse large B-cell lymphoma (DLBCL). This cell line expresses a mutant form of the EZH2 enzyme (A677G) that results in enhanced EZH2 activity leading to increased methylation of histone H3 Lys27. Increased trimethylation of histone H3 Lys27 is believed to be implicated in tumorgenesis and poor clinical prognosis in lymphomas (McCabe et al., (2012) Nature 492:108-112).
Inhibition of PRC2-mediated histone H3 methylation by compounds of Formula (I) was measured by ELISA using a Tri-Methyl Histone H3 (Lys 27) Sandwich ELISA Kit (Cell Signaling Tech #7866C) in accordance with the manufacturer's instructions. Briefly, Pfeiffer cells were cultured in RPMI medium supplemented with 10% fetal bovine serum and 1% penicillin and 1% streptomycin in 96 well culture plates at 37° C. to a density of 8000 cells/90 μl/well and the cells were harvested. A series of 3-fold serial dilutions of each test compound of Formula (I) were prepared in RPMI medium and added to the cells at final concentrations ranging from 1 μM to 0.15 nM. The plates were incubated at 37° C. for 96 hours.
After incubation, the cells were pelleted by centrifugation in a pre-cooled 4° C. rotor at 1,100 rpm for 10 min and the supernatant was removed by aspiration. The cell pellet was resuspended in 55 μl of Lysis Buffer (0.4M HCl) and incubated on ice with periodic shaking for 30 minutes. The lysed cells were subjected to centrifugation at 4,200 rpm for 10 min at 4° C. and the supernatant containing acid-soluble proteins was collected and the remainder discarded. The acid-soluble proteins were brought to a neutral pH by the addition of 20 μl of Neutralization Buffer (1 M Sodium phosphate, dibasic (pH 12.5), 2.5 mM DTT and 1 mM PMSF) and the neutralized lysates were analyzed by ELISA.
A 65 μl aliquot of each cell lysate was added to a well of a microwell strip, the microwells were sealed using tape and incubated either at 37° C. for two hours or at 4° C. overnight. After incubation, the tape was removed at the microwells were washed four times using 200 μl of 1× Wash Buffer. To each washed microwell, a 100 μl aliquot of an anti-trimethyl histone H3 Lys27 Detection Antibody solution was added and the microwells were incubated at 37° C. for one hour. […]
A 100 μl aliquot of an HRP-linked secondary antibody was added to each well, the wells were sealed with tape and incubated at 37° C. for 30 min. […] The degree of histone H3 trimethylation was determined using a spectrophotometric readout by measuring the absorbance at 450 nm and then calculating the amount of trimethylated histone H3. A=≤100 nM; B=>100 nM-≤500 nM; C=>500 nM and N.D.=not determined.

[3] = target: purified human, His-tagged PRC2 complex (Homo sapiens (Human), UniProt O75530); experiment: Hot Spot HMT assay of PRC2 enzymatic activity; type: biochemical; conditions: 10 nM PRC2 complex, core histone H3, 1 uM 3H-SAM, 1 hr at 30° C; read-out: IC50, Inhibition of PRC2-mediated Enzymatic Activity
Sequence of purified human, His-tagged PRC2 complex (Q15910 whole entry): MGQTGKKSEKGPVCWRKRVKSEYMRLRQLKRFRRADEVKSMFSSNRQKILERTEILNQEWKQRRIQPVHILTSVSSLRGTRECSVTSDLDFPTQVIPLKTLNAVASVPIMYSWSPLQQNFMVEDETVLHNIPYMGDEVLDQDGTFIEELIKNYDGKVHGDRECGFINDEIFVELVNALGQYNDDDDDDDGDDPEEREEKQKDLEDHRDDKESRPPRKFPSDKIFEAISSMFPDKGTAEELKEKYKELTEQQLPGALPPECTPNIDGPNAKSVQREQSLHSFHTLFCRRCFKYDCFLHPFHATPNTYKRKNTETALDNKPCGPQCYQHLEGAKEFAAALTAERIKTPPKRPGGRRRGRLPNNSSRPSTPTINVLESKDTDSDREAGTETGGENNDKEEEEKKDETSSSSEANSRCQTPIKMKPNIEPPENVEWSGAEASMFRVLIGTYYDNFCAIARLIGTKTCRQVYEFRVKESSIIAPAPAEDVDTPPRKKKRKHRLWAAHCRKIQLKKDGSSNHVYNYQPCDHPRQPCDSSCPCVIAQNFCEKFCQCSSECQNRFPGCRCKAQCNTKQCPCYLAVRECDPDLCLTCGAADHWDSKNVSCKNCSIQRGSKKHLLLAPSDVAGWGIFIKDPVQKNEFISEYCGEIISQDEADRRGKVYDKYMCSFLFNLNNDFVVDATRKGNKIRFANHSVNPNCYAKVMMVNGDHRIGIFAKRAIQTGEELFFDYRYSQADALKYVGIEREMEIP
Sequence of purified human, His-tagged PRC2 complex (O75530 whole entry): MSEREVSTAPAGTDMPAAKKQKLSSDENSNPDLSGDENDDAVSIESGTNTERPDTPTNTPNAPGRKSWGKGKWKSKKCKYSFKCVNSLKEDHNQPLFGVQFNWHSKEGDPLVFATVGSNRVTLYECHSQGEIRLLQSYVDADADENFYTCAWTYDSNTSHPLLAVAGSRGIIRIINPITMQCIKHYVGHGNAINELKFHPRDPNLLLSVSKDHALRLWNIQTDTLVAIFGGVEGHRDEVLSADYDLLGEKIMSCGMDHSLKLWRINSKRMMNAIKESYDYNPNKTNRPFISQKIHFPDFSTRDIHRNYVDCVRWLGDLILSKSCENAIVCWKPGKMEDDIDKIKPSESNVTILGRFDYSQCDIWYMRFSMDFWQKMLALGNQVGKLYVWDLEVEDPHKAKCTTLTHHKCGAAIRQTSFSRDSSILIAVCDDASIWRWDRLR
Sequence of purified human, His-tagged PRC2 complex (Q15022 whole entry partner): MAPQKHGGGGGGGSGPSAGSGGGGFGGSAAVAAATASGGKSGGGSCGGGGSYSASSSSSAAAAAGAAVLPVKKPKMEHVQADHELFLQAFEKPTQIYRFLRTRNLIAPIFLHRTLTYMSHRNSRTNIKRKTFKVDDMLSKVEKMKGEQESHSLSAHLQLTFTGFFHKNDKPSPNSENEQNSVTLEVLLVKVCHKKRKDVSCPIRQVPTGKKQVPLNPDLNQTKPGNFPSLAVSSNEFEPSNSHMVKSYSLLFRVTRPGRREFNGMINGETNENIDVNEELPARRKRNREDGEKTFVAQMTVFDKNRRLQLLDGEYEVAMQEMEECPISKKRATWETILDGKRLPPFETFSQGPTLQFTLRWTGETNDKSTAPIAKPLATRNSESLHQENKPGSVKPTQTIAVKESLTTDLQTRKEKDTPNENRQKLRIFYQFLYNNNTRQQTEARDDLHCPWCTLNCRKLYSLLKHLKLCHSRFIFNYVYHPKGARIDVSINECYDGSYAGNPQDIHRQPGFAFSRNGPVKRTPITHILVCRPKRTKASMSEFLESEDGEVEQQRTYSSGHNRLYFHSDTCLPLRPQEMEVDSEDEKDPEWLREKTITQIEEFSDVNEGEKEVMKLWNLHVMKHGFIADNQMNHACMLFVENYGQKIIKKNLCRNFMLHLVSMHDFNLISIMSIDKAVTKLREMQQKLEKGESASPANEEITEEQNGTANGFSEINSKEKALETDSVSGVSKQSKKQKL
Sequence of purified human, His-tagged PRC2 complex (Q6ZN18 whole entry partner): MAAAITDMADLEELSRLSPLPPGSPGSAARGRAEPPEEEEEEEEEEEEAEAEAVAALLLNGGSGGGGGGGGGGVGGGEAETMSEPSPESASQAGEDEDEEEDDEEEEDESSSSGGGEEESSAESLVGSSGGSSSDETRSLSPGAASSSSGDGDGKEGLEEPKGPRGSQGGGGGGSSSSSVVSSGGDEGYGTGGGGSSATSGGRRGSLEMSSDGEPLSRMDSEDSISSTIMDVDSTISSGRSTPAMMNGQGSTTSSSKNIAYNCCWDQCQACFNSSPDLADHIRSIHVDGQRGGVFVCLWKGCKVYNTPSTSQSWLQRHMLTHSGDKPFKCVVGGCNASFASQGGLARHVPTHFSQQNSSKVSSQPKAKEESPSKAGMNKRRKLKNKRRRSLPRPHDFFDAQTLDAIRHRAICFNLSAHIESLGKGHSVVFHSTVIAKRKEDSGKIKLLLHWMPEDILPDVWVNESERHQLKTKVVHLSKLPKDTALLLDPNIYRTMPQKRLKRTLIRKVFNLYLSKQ
Sequence of purified human, His-tagged PRC2 complex (Q09028 whole entry partner): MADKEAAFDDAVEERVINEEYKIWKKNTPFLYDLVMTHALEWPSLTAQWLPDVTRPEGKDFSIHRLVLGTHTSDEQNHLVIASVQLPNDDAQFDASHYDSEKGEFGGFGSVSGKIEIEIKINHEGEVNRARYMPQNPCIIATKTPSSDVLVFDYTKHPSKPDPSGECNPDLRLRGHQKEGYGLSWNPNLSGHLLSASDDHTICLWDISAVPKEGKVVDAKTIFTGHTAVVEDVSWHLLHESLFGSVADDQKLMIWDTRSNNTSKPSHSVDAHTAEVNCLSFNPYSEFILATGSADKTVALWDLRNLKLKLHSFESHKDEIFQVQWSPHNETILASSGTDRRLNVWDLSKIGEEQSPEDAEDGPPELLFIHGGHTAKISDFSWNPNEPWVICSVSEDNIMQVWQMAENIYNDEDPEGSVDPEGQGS
Excerpt: The assay uses purified human, His-tagged PRC2 complex, including N-terminal His-tagged EZH2 enzyme, N-terminal Flag-tagged embryonic ectoderm development protein (EED), N-terminal His-tagged suppressor of zeste 12 (SUZ12), N-terminal His-tagged AEBP2, and N-terminal His-tagged RbAp48. In this assay, the transfer of the tritiated methyl group from radiolabeled S-adenosyl methionine (SAM) to purified core histone protein by EZH2 is quantitated after filtration to determine the activity of the core PRC2 complex in the presence and absence of compound.
The initial starting concentration for the serial dilutions of each compound was 1.0 μM. […] SAH (S-(5-adenosyl)-L-homocysteine) was used as a positive control for assay validation.
An aliquot of each serial dilution of test compound was added to deep 384 well plate using Acoustic Technology instrument (Echo 550, LabCyte) containing reaction buffer (50 mM Tris-HCl (pH 8.)), 0.01% Brij35, 1 mM EDTA, 1 mM DTT, 1 mM PMSF and 1% DMSO), 10 nM purified PRC2 complex and 0.05 mg/ml core histone H3 in a 5 μl volume. The reaction was mixed gently and then pre-incubated for 20 min at 30° C. […] After 1 hr, the reaction product was detected using a filter binding method and the amount of tritiated H3 core histone was quantitated using a scintillation counter.

SMILES	IC50 ([1]; Homo sapiens) [nM]	IC50 ([2]; Homo sapiens) [nM]	IC50 [1] [nM]	IC50 [2] [nM]	IC50 [3] [µM]
CN1CCC1c1ccc(-c2cnc(NCc3c(F)ccc4c3CCO4)n3cc(C#N)nc23)cc1 (stereo not drawn) [Example 221]	≤ 250	100 to 500			
N#Cc1cn2c(NCc3c(F)ccc4c3CCO4)ncc(-c3cnn(CC4CCOC4)c3)c2n1 (stereo not drawn) [compound 154]			250 to 500	100 to 500	
Cc1nc(N2CCOCC2)ccc1-c1cnc(NCc2c(F)ccc3c2CCO3)n2cc(C#N)nc12 [Example 56]	≤ 250	100 to 500			
N#Cc1cn2c(NCc3c(F)ccc4c3CCO4)ncc(-c3cnc(C4CC4)cn3)c2n1 [Example 70]	≤ 250	< 100			< 0.1
